The text below walks through data of patent US20240230620A1, “CURRENT AND […]” (National Taiwan University, priority 2023, published 2024).

Read-outs that look alike come from different tables or passages of the source.

In assay [1] the target is T1, AtGPA1 (Arabidopsis thaliana, UniProt P18064).
T1 sequence (P18064 1-383): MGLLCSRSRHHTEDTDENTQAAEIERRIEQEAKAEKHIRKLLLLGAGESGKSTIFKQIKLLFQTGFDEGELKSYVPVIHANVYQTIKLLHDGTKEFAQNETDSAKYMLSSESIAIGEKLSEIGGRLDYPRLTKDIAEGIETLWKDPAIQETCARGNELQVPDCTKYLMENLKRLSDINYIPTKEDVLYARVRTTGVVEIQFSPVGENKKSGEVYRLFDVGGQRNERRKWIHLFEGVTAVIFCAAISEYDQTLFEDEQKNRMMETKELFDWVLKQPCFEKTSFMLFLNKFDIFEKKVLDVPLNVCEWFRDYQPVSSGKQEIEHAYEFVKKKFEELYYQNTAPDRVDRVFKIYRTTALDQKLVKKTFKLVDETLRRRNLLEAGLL
As to conditions: derived from radioactive GTPγS assay; read-out: KD of AtGPA1 and GTPγS, previous study; cited from earlier work.

The target of assay [2] is T1, AtGPA1. Briefly: GTPγS saturation binding analysis of AtGPA1 (photocurrent and fluorescence). As to conditions: percent of maximum fitted to a hyperbola, preliminary test. On the procedure:
The photo-induced-voltage-generating solution chamber was filled with 20 mg/mL HEBR solution in the dual chamber format. The sample to be tested was added to the sample chamber at a volume of 100-150 μL. The photo-induced-voltage-generating solution chamber was illuminated by a 10-Hz, 532-nm flash laser (Nd-YAG laser, 6 ns pulse, pump energy 21 J) via a central control unit (Raspberry Pi 400) to generate the alternating photocurrent. The data recording system was identical to steady-state photocurrent measurement. Each data was collected at a single trigger event. The laser was triggered at 0 s and stopped at 40 s with each 5 s pre-trigger and post-illumination. Then, the raw data were recorded in a .csv file and processed by the Python code. The processed data were exported to an excel file for further analysis.
After the successful measurement of the interaction of Gα with its ligand, the present device was extended to measure the KD of Gα and its ligands. In preliminary test, the plant Arabidopsis thaliana Gα AtGPA1 and a non-hydrolyzable GTP analog GTPγS were adopted. […] The AtGPA1 was purified and analyzed the activity using the identical method in mammalian Gα purification.
Referring to FIG. 24, to calculate the KD of AtGPA1 and GTPγS, both photocurrent and fluorescence were measured. […]

A further assay concerns Gα subunit. As to conditions: fluorescence.

Procedure for Gα subunit: The intrinsic tryptophan in the switch-II region serves as a fluorescent probe for examining the activity of Ga subunit. In the AlF4^− dependent activation assay, the AlF4^− bound to GDP mimics the transition state of GTP hydrolysis, stimulating the conformational change of the switch-II region and enhancing the fluorescence quantum yields of intrinsic Trp. This principle was also applied to GDP/GTP auto-exchange, but it was conducted using of GTPγS, a non-hydrolyzable GTP analog. In the time-course of Trp fluorescence measurement, the excitation and emission wavelengths were 280 and 340 nm, respectively, and both slits are 10 nm. For AlF4^− dependent activation assay, 20 μL 20 μM Ga protein was first added into a cuvette filled with 1.5 mL buffer G without BME and PMSF at 50 s. Then 40 μL 500 mM NaF and 20 μL 10 mM AlCl3 were added simultaneously at 100 s. For GDP/GTP auto-exchange, the experiments were conducted as described above using 1 μM GTPγS instead of AlF4^−.
The effectiveness of Gα inactivation using EDTA was analyzed by fluorescence (FIG. 23(A)).

Turning to `Nc1nc2c(ncn2[C@@H]2O[C@H](COP(=O)(O)OP(=O)(O)OP(O)(O)=S)[C@@H](O)[C@H]2O)c(=O)[nH]1` [GTPγS], the Kd at AtGPA1 [1] was 0.8 nM; on AtGPA1 [2], around 1.5 nM.
As for `O=C(O)CN(CCN(CC(=O)O)CC(=O)O)CC(=O)O` [EDTA], the Gα subunit inactivation entry with Gα subunit (20 μM Gα subunit at 100 mM EDTA) was “almost inactivated”. For the same compound, the “reduction of Gα subunit activity” value with Gα subunit (20 μM Gα subunit in 10 mM EDTA) is given as “more than 60%”.

By Kd is commonly meant the equilibrium constant for the complex coming apart.
